Calls of active or inactive are those of the source.
How the values were obtained:
Trypanosoma cruzi = assay: growth inhibition of intracellular Trypanosoma cruzi, dose response, cell-based, plate reader, dry powder, set 3 (AID 493197); format: functional
[1] = target: T1, Tyrosine-protein phosphatase non-receptor type 7 (Homo sapiens, UniProt P35236); format: functional
T1 sequence (P35236 whole entry): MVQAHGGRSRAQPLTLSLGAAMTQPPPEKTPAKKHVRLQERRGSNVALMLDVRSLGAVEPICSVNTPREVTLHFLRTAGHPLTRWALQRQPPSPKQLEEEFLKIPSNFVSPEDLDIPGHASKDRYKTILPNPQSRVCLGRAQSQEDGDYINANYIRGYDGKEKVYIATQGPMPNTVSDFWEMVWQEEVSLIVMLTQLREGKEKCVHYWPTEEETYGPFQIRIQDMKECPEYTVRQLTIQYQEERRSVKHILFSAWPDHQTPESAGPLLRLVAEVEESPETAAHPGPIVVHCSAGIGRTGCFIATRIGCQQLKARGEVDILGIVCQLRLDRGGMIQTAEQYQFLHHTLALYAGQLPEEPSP

[2] = target: Glyceraldehyde-3-phosphate dehydrogenase (Homo sapiens, UniProt P04406)
[3] = target: T2, Dual specificity protein phosphatase 6 (Rattus norvegicus, UniProt Q64346);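 note: in vitro confirmatory secondary MKP-3 assay designed to detect irreversible or slow-binding inhibitors; recombinant His-tagged rat MKP-3 acting on the substrate OMFP; inhibitor potency from reduced phosphatase rate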
T2 sequence (Q64346 whole entry): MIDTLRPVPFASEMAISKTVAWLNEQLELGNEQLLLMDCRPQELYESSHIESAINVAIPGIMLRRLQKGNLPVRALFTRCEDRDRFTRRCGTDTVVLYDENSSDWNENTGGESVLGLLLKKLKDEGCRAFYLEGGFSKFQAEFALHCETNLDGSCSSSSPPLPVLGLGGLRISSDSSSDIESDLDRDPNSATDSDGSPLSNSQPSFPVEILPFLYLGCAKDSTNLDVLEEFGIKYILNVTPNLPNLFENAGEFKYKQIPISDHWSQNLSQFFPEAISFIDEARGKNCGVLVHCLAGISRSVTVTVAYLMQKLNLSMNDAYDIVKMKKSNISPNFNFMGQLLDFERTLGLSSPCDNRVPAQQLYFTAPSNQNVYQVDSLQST

[4] = target: Induced myeloid leukemia cell differentiation protein Mcl-1 (Homo sapiens, UniProt Q07820); format: functional
Genome polyprotein = Genome polyprotein (dengue virus type 2, UniProt P29990); assay: Dengue-2 NS5 methyltransferase inhibitors, primary screen, biochemical, confirmation dose response (AID 588689); format: functional
[5] = target: T3, Carboxy-terminal domain RNA polymerase II polypeptide A small phosphatase 1 (Homo sapiens, UniProt Q9GZU7); assay: inhibitors of CTDSP1, concentration-response testing, biochemical assay, absorbance-based, actives from ultra-high-throughput screening (AID 540297); format: functional
T3 sequence (Q9GZU7 whole entry): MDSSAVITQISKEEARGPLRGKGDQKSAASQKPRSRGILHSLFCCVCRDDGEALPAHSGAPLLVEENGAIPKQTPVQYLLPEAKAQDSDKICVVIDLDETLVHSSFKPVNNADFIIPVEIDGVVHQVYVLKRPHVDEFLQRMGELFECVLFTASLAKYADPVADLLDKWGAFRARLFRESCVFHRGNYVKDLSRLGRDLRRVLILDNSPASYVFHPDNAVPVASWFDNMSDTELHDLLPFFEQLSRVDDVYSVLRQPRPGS

[6] = target: Melanin-concentrating hormone receptor 1 (Homo sapiens, UniProt Q99705); assay: Late-stage fluorescence-based counterscreen for antagonists of the G-protein coupled receptor 7 (GPR7): cell-based dose response assay to identify antagonists of the melanin-concentrating hormone receptor 1 (MCHR1). [Related pubchem assays (depositor defined):AID1861, AID1880, AID1952, AID2148, AID2251, AID2257, AID485339]; format: functional;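 note: stimulated with 30 nM MCH peptide agonist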
[7] = target: T4, Neuropeptides B/W receptor type 1 (Homo sapiens, UniProt P48145); assay: GPR7 antagonist potency, late-stage follow-up, cell-based, fluorescence, dose response (AID 463251); format: functional
T4 sequence (P48145 whole entry): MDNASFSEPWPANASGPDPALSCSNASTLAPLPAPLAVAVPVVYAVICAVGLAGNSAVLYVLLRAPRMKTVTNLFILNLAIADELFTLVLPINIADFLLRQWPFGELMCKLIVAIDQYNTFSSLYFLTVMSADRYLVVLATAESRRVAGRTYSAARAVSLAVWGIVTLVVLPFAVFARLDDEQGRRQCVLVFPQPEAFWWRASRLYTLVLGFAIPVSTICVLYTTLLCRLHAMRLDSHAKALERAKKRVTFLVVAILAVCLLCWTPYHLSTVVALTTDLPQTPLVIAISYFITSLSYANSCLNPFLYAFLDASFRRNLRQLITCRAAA

Neutrophil collagenase = Neutrophil collagenase (Homo sapiens, UniProt P22894); assay: MMP13 inhibition and MMP selectivity, late-stage follow-up, selectivity assay for MMP13 inhibitor project, biochemical, probe development, late stage results, panel member MMP-8 [IC50 Assay] (AID 2067)
Collagenase 3 = Collagenase 3 (Homo sapiens, UniProt P45452); assay: MMP13 inhibition and MMP selectivity, late-stage follow-up, selectivity assay for MMP13 inhibitor project, biochemical, probe development, late stage results, panel member MMP-13 [IC50 Assay] (AID 2067)
[8] = target: Acyl-homoserine lactone acylase PvdQ (Pseudomonas aeruginosa (strain LESB58), UniProt Q9I194); assay: P. aeruginosa PvdQ acylase inhibitors, dose response, biochemical, fluorescence, plate reader and imaging, cherry-picks (AID 493231)
[9] = Luminescence Cell-Based Dose Response HTS to Identify Activators of Luciferase Translation or Activity in H4-C Neuroglioblastoma Cells. [Related pubchem assays: 1829 (Project Summary), 1814 (Primary HTS)]; format: functional
[10] = Luminescence Cell-Based Dose Retest to Confirm Activators of 5'UTR Stem-Loop Driven Alpha-Synuclein mRNA Translation in H4 Neuroglioblastoma Cells. [Related pubchem assays (depositor defined):AID1813, AID1829]; format: functional
[11] = Luminescence Cell-Based Dose Response HTS to Identify Activators of 5'UTR Stem-Loop Driven Prion Protein mRNA Translation in H4-C Neuroglioblastoma Cells. [Related pubchem assays: 1829 (Project Summary), 1814 (Primary HTS)]; format: functional
[12] = Luminescence Cell-Based Dose Confirmation HTS to Identify Activators of 5'UTR Stem-Loop Driven Alpha-Synuclein mRNA Translation in H4 Neuroglioblastoma Cells. [Related pubchem assays: 1829 (Project Summary), 1814 (Primary HTS)]; format: functional
[13] = Luminescence Cell-Based Dose Response HTS to Identify Activators of Luciferase Translation or Activity in H4 […] Cells. [Related pubchem assays: 1829 (Project Summary), 1814 (Primary HTS)]; format: functional
H4 = assay: Luminescence Cell-Based Dose Response HTS to Identify Activators of 5'UTR Stem-Loop Driven Prion Protein mRNA Translation in H4 Neuroglioblastoma Cells. [Related pubchem assays: 1829 (Project Summary), 1814 (Primary HTS)]; format: functional; details: Homo sapiens
[14] = target: T1, Tyrosine-protein phosphatase non-receptor type 7; assay: SAR analysis of chemical inhibitors of HePTP using a Fluorescent assay - Set 2. [Related pubchem assays (depositor defined):AID1059, AID1077, AID1661, AID2085, AID521]; format: functional
[15] = target: T5, Dual specificity protein phosphatase 3 (Homo sapiens, UniProt P51452); assay: SAR VHR1 Fluorescent Assay for In Vitro dose response studies Set 2. [Related pubchem assays (depositor defined):AID1654, AID1661, AID1878]; format: functional
[16] = inhibitors of firefly luciferase expression or activity, dose response, H4 neuroglioma cells, luminescence (AID 1990); format: functional, cell-based
[17] = inhibitors of SNCA 5'UTR-driven reporter translation, confirmation, H4 neuroglioma cells, luminescence (AID 1988); format: functional, cell-based
[18] = target: Voltage-dependent T-type calcium channel subunit alpha-1H (Homo sapiens, UniProt O95180); format: functional;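 note: channel activity triggered by adding a high calcium stimulation buffer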
[19] = target: Cyclin-dependent kinase 5/CDK5 activator 1 (Homo sapiens, UniProt Q00535); assay: CDK5/p35 kinase inhibitors, dose response, biochemical, cherry-picked samples, set 2 (AID 504545)
[20] = target: Intestinal-type alkaline phosphatase (Homo sapiens, UniProt P09923); assay: Dose Response confirmation of uHTS hits from a small molecule inhibitors of human intestinal alkaline phosphatase via a luminescent assay. [Related pubchem assays (depositor defined):AID2544, AID2574]; format: functional
[21] = target: Kappa-type opioid receptor (Homo sapiens, UniProt P41145); assay: SAR analysis of small molecule agonists of the kappa opioid receptor via a luminescent beta-arrestin assay - Set 2. [Related pubchem assays (depositor defined):AID1777, AID1785, AID1786, AID1966, AID2133, AID2136, AID2284, AID449737]; format: functional
[22] = target: T5, Dual specificity protein phosphatase 3; assay: VHR1 inhibitor Ki determination, SAR follow-up, biochemical, colorimetric (AID 2004)
HEK293 [23] = assay: NOD1 signaling inhibitors, primary screen, cell-based, luminescence, uHTS (AID 1578); format: functional; details: Homo sapiens
HEK293 [24] = assay: cells; format: functional, cell-based; details: Homo sapiens
HEK293 [25] = assay: cells; format: functional, cell-based; details: Homo sapiens; remark: listed apart in the source
[26] = target: Nucleotide-binding oligomerization domain-containing protein 2 (Homo sapiens, UniProt Q9HC29); assay: NOD2 signaling inhibitors, cell-based, luminescence, uHTS, HEK293 (AID 1566); format: functional
HEK293 [27] = assay: NOD2 signaling inhibitors in MDP-stimulated cells, cell-based, uHTS, luminescence (AID 2001); format: functional; details: Homo sapiens
HEK293 [28] = assay: cells; format: functional, cell-based; details: Homo sapiens; remark: listed apart in the source
[29] = target: Scavenger receptor class B member 1 (Mus musculus, UniProt Q61009); assay: inhibitors of SR-BI mediated HDL lipid uptake, dose response, ldlA[mSR-BI] cells, fluorescence, cherry pick (AID 493194); format: functional, cell-based;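 note: cellular uptake of fluorescent DiI-labeled HDL measured as cell fluorescence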
INS1 = assay: beta cell apoptosis inhibitors, cytokine rescue, dose response, luminescence, retest (AID 449756); format: functional, cell-based; details: Rattus norvegicus;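 note: cell death triggered by IL-1 beta plus TNF-alpha plus IFN-gamma mixture; protective hits raise ATP signal compared with cytokine alone wells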
Paired box protein Pax-8 = Paired box protein Pax-8 (Homo sapiens, UniProt Q06710); assay: inhibitors of PAX8-driven TPO luciferase reporter, dose response, RMG-I cells, cherry-pick (AID 687027); format: functional, cell-based;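 note: luciferase reporter driven by Pax8 target thyroperoxidase promoter measured by SteadyGlo luminescence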
Sequence of Paired box protein Pax-8 (Q06710 whole entry): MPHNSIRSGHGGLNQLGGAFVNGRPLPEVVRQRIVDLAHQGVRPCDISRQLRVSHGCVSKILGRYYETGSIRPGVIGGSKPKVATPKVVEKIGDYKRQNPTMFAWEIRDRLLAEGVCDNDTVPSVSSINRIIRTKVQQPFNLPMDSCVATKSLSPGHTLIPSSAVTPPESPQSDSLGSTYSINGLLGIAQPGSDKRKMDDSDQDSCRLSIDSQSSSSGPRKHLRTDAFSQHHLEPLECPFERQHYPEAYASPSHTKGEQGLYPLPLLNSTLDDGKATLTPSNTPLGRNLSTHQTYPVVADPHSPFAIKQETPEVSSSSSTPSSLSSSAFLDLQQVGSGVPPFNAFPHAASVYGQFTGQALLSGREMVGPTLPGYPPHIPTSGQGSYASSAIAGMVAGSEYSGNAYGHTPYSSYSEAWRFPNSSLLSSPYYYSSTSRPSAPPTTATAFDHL

T5 sequence (P51452 whole entry): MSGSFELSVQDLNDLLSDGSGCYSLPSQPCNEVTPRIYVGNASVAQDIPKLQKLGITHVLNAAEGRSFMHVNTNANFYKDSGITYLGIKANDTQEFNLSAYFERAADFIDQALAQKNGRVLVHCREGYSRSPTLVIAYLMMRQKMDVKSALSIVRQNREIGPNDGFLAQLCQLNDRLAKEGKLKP
Sequence of Kappa-type opioid receptor (P41145 whole entry): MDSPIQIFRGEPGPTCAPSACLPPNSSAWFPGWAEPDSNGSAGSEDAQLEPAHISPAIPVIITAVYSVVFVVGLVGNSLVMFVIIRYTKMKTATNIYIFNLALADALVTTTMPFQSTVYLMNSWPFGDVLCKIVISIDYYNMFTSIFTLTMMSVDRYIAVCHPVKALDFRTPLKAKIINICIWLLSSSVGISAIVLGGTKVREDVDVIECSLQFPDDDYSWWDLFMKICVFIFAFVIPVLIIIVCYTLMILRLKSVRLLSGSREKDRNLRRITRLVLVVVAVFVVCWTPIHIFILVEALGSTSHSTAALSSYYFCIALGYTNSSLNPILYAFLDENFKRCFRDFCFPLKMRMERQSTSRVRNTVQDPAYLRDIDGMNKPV
Sequence of Neutrophil collagenase (P22894 whole entry): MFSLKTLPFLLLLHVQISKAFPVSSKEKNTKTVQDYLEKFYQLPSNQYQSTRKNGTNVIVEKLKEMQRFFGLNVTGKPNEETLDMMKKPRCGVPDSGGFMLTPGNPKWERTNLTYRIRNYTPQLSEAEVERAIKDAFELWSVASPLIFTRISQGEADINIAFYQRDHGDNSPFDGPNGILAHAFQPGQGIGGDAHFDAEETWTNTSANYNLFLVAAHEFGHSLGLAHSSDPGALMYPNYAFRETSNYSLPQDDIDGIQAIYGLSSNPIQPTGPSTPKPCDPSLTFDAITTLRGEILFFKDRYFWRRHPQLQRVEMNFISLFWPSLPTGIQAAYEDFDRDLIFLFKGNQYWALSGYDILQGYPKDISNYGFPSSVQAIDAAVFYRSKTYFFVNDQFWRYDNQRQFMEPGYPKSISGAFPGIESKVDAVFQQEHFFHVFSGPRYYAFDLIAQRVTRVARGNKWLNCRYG
Sequence of Acyl-homoserine lactone acylase PvdQ (Q9I194 24-193 limits assumed): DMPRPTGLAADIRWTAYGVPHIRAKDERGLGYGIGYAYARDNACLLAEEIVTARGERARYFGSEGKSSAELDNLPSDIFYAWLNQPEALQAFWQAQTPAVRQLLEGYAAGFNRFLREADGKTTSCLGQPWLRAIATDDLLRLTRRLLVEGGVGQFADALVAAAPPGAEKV
Sequence of Acyl-homoserine lactone acylase PvdQ (Q9I194 217-762 limits assumed): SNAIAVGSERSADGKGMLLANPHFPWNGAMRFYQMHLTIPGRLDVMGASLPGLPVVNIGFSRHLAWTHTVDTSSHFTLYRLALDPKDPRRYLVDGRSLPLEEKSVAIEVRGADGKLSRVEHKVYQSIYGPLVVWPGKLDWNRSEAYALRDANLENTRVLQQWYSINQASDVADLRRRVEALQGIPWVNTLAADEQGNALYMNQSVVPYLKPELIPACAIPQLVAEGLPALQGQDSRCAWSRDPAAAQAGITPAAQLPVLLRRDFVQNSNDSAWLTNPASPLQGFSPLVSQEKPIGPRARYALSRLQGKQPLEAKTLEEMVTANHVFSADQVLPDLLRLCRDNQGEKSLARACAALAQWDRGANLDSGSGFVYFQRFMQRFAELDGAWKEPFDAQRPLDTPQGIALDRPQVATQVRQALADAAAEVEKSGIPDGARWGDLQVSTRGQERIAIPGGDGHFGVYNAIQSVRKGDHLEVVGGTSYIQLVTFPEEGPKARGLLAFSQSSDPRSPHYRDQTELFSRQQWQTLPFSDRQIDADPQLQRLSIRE
Sequence of Melanin-concentrating hormone receptor 1 (Q99705 whole entry): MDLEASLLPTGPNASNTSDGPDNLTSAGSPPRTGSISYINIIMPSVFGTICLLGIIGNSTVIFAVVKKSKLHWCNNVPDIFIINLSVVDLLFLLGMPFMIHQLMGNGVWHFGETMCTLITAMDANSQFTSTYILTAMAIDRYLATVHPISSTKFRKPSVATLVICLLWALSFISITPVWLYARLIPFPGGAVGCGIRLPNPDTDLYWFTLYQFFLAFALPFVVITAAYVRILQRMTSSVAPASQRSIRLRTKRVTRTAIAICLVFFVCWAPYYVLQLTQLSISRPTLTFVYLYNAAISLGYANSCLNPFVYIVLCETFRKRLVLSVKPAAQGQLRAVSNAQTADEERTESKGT
Sequence of Scavenger receptor class B member 1 (Q61009 whole entry): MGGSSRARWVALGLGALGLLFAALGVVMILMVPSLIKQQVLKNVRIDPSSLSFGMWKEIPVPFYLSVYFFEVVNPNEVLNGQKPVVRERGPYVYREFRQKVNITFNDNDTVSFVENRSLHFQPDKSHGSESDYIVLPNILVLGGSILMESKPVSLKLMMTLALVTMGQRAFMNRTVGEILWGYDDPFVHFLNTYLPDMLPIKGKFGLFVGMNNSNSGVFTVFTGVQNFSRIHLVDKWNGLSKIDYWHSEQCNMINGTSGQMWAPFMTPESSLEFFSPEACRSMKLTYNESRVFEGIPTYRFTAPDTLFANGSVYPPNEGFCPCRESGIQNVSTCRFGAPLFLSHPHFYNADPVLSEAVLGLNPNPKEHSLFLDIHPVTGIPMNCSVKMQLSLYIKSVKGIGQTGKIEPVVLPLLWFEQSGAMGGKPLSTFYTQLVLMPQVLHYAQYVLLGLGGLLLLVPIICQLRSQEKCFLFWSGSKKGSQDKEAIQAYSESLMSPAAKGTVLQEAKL
Sequence of Glyceraldehyde-3-phosphate dehydrogenase (P04406 whole entry): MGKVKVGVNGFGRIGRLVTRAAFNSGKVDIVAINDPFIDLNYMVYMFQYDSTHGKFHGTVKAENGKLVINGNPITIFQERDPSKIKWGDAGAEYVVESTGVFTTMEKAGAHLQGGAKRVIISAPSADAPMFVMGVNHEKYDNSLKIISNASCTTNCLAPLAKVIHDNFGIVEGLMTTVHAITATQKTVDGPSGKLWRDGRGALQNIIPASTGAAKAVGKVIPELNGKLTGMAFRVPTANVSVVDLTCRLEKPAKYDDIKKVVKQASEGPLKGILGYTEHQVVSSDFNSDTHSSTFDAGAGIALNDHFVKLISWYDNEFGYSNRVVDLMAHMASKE
Sequence of Intestinal-type alkaline phosphatase (P09923 whole entry): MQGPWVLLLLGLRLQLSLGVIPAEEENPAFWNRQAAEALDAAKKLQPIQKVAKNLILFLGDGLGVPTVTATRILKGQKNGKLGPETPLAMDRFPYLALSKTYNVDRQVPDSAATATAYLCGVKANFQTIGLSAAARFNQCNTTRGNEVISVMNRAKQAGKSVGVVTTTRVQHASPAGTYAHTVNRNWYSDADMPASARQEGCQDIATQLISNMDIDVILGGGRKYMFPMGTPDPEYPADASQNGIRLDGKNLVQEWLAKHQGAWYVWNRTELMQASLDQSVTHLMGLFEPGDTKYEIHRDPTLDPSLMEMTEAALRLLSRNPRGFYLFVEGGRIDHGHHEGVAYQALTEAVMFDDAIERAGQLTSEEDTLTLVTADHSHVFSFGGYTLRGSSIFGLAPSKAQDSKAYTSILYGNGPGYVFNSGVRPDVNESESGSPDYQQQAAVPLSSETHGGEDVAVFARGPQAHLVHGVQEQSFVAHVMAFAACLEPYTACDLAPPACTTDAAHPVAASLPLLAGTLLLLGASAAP
Sequence of Nucleotide-binding oligomerization domain-containing protein 2 (Q9HC29 whole entry, the tested form may be a part): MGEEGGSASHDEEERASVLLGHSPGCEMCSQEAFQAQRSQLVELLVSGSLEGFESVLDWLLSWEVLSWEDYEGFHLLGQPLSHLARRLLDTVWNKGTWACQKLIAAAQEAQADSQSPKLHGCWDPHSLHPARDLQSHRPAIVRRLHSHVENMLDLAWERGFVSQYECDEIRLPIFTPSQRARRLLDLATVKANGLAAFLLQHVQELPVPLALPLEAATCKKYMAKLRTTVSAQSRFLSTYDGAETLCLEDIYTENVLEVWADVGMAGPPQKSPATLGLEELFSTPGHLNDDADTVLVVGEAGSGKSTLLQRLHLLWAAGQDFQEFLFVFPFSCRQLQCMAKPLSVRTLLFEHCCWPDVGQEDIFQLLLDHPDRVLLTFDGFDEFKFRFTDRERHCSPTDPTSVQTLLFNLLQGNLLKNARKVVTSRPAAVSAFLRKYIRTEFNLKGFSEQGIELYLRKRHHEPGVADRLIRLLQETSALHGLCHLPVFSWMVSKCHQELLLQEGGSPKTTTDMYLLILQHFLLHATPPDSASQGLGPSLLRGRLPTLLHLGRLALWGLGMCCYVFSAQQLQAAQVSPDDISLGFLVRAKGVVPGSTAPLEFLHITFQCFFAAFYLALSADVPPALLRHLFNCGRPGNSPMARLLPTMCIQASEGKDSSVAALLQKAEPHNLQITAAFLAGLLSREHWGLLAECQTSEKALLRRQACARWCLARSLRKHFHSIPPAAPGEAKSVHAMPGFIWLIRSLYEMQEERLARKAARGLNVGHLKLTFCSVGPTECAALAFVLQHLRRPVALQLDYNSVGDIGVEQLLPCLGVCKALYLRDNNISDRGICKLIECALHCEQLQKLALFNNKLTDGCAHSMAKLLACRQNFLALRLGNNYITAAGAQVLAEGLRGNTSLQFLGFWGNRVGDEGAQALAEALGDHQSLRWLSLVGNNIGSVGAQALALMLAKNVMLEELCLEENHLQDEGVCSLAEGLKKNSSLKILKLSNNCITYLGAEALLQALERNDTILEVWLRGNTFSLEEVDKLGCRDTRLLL

CCNC(=O)C1(C)CCCN(Cc2cccc(Oc3ccccc3)c2)C1 (stereo unspecified)
AC50 (Trypanosoma cruzi): 45.6 µM (active)

Cc1ccc2c(c1Cl)NC(C(=O)O)C1CC(Sc3ccccc3[N+](=O)[O-])C(Cl)C21 (stereo unspecified)
IC50 [1]: 13.7 µM (active) | IC50 [2]: > 100 µM (not active) | IC50 [3]: 42.6 µM (active) | IC50 [4]: 2.96 µM (active) | IC50 (Genome polyprotein): 76.9 µM (active) | IC50 [5]: 2.97 µM (active)

Cc1ccc(-n2ccc(Cl)c(Cl)c2=O)cc1
IC50 [6]: > 20 µM (inactive) | IC50 [7]: > 20 µM (inactive)

C#CCSc1nc2c(c(=O)[nH]1)CCC2
IC50 (Neutrophil collagenase): > 39.8 µM (active) | IC50 (Collagenase 3): > 39.8 µM (inactive)

CC(C)N=C(NC#N)SCc1ccccc1F
AC50 [8]: 10.8 µM (active)

N#Cc1cc2c(nc1SCC(=O)Nc1ccc(Cl)cc1)C1CCN2CC1
EC50 [9]: 2.33 µM (active) | EC50 [10]: 2.86 µM (active) | EC50 [11]: 20.1 µM (active) | EC50 [12]: 5.38 µM (active) | EC50 [13]: 27.9 µM (active) | EC50 (H4): > 120 µM (not active)

CCOc1ccc(-n2c(N)c(C(=O)NCc3ccco3)sc2=S)cc1
IC50 [14]: > 100 µM (inactive) | IC50 [15]: > 100 µM (inactive)

Cc1ccc(Cn2nc(C)c(NC(=O)c3cc(-c4ccc5c(c4)OCO5)on3)c2C)cc1
EC50 [16]: > 120 µM (not active) | EC50 [17]: 14 µM (active) | EC50 [18]: 30 µM (active)

CCc1c(O)nc(N)nc1Nc1ccccc1Cl
AC50 [19]: 7.32 µM (active)

O=C(Cc1coc2ccc3ccccc3c12)NCc1ccccc1
IC50 [20]: > 100 µM (inactive)

COC(=O)CN(Cc1cccs1)C(=O)c1cccnc1
EC50 [21]: > 20 µM (inactive)

O=C(O)C(Cc1ccccc1)NC(=S)Nc1ccccc1 (stereo unspecified)
Ki [22]: 28.8 µM (inactive)

COc1ccc(NC(=O)c2c(Nc3ccccc3)sc(C(=O)c3ccc(F)cc3)c2N)cc1
EC50 (HEK293 [23]): > 20 µM (inactive) | IC50 (HEK293 [24]): > 20 µM (inactive) | IC50 (HEK293 [25]): > 20 µM (inactive) | EC50 [26]: > 20 µM (inactive) | IC50 (HEK293 [27]): > 20 µM (inactive) | IC50 (HEK293 [28]): > 20 µM (inactive) | AC50 [29]: 2.46 µM (active) | AC50 (INS1): 2.91 µM (active) | AC50 (Paired box protein Pax-8): 1.69 µM (active)

Reference: ChEMBL document CHEMBL1201862, “PubChem BioAssay data set” (2004)
